The structures appear in SMILES notation.

In series [1] the test system is phenylquinone induced mouse writhing. In words: phenylquinone induced mouse writhing test (analgesic activity). The conditions noted are these: po. In kind it is in vivo. On the procedure:
Analgesic activity was determined using a conventional phenylquinone induced mouse writhing test.
For orientation: In writhing tests, fewer writhes than in controls are read as antinociception.

For series [2] the following is noted: reported in J. Pharmacol, Exptl. Therap. 1973, 185, 127-138; cited from earlier work.
Series [3] relates to test animals. The conditions noted are these: in vivo.

Broadly, the ED50 is the dose at which the effect has come halfway, by size or by number of responders. `CC(=O)CCc1cc(C)c(C(=O)c2ccc(Cl)cc2)n1C` [Example 1, 4-(1,4-dimethyl-p-chlorobenzoyl-2-pyrryl)butan-2-one] yielded an ED50 in series [1] of 6.1 mg/kg. As to `Cc1ccc(C(=O)c2ccc(CC(=O)O)n2C)cc1` [Tolmetin], the anti-inflammatory activity result in series [2] is given as “possess anti-inflammatory activity”. Further, the gastric irritancy entry in series [3] is “causes gastric irritancy”.

(Values after patent publication EP0032314A1, “Aroylpyrrole derivatives, processes for their preparation and their use” (BEECHAM GROUP PLC, priority 1980, dated 1981).)
